Test results reported in patent publication US20240165281A1, “DUAL MODE RADIOTRACER AND THERAPEUTICS” (Technische Universität München, priority 2021, published 2024).

Key:
[1] = tested on: LNCaP tumor-bearing mice; assay: μSPECT/CT imaging with tumor uptake; assay type: in vivo
Protocol: Static images were recorded of sacrificed mice, 24 h p.i. directly after blood collection, with an acquisition time of 45 min using the HE-GP-RM collimator and a step-wise multi-planar bed movement. For imaging studies, a MILabs VECTor4 small-animal SPECT/PET/OI/CT from MILabs (Utrecht, Netherlands) was applied. Furthermore, data were reconstructed using the MILabs-Rec software (version 10.02) and a pixel-based Similarity-Regulated Ordered Subsets Expectation Maximization (SROSEM) algorithm with a window-based scatter correction (20% below and 20% above the photopeak, respectively). Moreover, further data analysis was accomplished using the PMOD4.0 software acquired from PMOD TECHNOLOGIES LLC (Zurich, Switzerland) at defined settings (voxel size CT: 80 μm, voxel size SPECT: 0.8 mm, 1.6 mm (FWHM) Gaussian blurring post processing filter, with calibration factor in kBq/mL and decay correction and no attenuation correction).

[2] = tested on: LNCaP cells; assay: Internalization studies in LNCaP cells; assay type: cell-based; conditions: 37° C., 60 min
Protocol: PSMA-positive LNCAP cells (300265; Cell Lines Service, Eppelheim, Germany) were cultivated in Dulbecco modified Eagle medium/Nutrition Mixture F-12 with Glutamax (1:1) (DMEM-F12, Biochrom, Berlin, Germany) supplemented with fetal bovine serum (10%, FBS Zellkultur, Berlin, Germany) and kept at 37° C. in a humidified CO2 atmosphere (5%). A mixture of trypsin and EDTA (0.05%, 0.02%) in PBS (Biochrom) was used in order to harvest cells. Cells were counted with a Neubauer hemocytometer (Paul Marienfeld, Lauda-Königshofen, Germany).
For internalization studies, LNCaP cells were harvested 24±2 hours before the experiment and seeded in poly-L-lysine coated 24-well plates (1.25×10^5 cells in 1 mL/well, Greiner Bio-One, Kremsmünster, Austria). After removal of the culture medium, the cells were washed once with 500 μL DMEM-F12 (5% BSA) and left to equilibrate for at least 15 min at 37° C. in […] DMEM-F12 (5% BSA). Each well was treated with either 25 μL of either DMEM-F12 (5% BSA, control) or 25 μL of a 100 μM PMPA (2-(Phosphonomethyl)-pentandioic acid, Tocris Bioscience, Bristol, UK) solution in PBS, for blockade. Next, 25 μL of the radioactive-labelled PSMA inhibitor (10.0 nM in DMEM-F12 (5% BSA)) was added and the cells were incubated at 37° C. for 60 min. The experiment was terminated by placing the 24-well plate on ice for 3 min and consecutive removal of the medium. Each well was carefully washed with 250 μL of ice-cold HBSS. Both fractions from the first steps, representing the amount of free radioligand, were combined. Removal of surface bound activity was accomplished by incubation of the cells with 250 μL of ice-cold PMPA (10 μM in PBS) solution for 5 min and rinsed again with another 250 μL of ice-cold PBS. The internalized activity was determined by incubation of the cells in 250 μL […] aqueous NaOH for at least 10 min. The obtained fractions were combined with those of the subsequent wash step with 250 μL 1 M aqueous NaOH. Each experiment (control and blockade) was performed in triplicate. Free, surface bound and internalized activity was quantified in a y-counter. All internalization studies were accompanied by external reference studies, using ([^125I]I-BA)KuE (c=0.2 nM), which were performed analogously. Data were corrected for non-specific binding and normalized to the specific-internalization observed for the radioiodinated reference compound.

[3] = Apparent molecular weight (MWapp)
[4] = Octanol-water partition coefficient (log D7.4); assay type: physicochemical; conditions: PBS pH 7.4 / n-octanol, 177Lu-labelled
Protocol: Octanol-Water Partition Coefficient (log D7.4)
Approximately 1 MBq of the labelled tracer was dissolved in 1 mL of a 1:1 mixture (v/v) of PBS (pH 7.4) and n-octanol in a reaction vial (1.5 mL). After vigorous mixing of the suspension for 3 minutes at room temperature, the vial was centrifuged at 15000 g for 3 minutes (Biofuge 15, Heraus Sepatech, Osterode, Germany) and 100 μL aliquots of both layers were measured in a gamma counter. The experiment was repeated at least six times.

Which results are given for `CC(C)(C)[Si](F)(c1ccc(C(=O)NC[C@@H](NC(=O)CN2CCN(CC(=O)O)CCN(CC(=O)O)CCN(CC(=O)O)CC2)C(=O)N[C@H](CO)C(=O)NCCC(=O)NCCC(=O)NCCC[C@@H](NC(=O)CC[C@H](NC(=O)N[C@@H](CCC(=O)O)C(=O)O)C(=O)O)C(=O)O)cc1)C(C)(C)C` [Compound 2C013]?
kidney uptake (FIG. 5, in words) ([1]; 24 h p.i., versus [177Lu]rhPSMA-7.3 and [177Lu]PSMA-I&T): lower kidney uptake than the previously known compounds; tumor uptake of the scanned mouse (FIG. 1) ([1]; μSPECT/CT scan, single animal): 9.8 % iD/g; Internalization ([2]; normalized to ([125I]I-BA)KuE): 141 ± 8^ % IBA-KuE; Internalization ([2]; normalized to reference): 141 ± 8 % IBA; MWapp [3]: 17.6 kDa; logD7.4 [4]: −3.30 ± 0.06
